From ChEMBL document CHEMBL1201862, “PubChem BioAssay data set” (2004)
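Protocol summary: plate cells (96-well), add compound at 5 concentrations, incubate 48 h, interpolate endpoints linearly. At the GI50, growth is halved.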 Activity calls are given as the source filed them. Rule as the data show it: active = GI50 up to about 1.1 µM and inactive = higher.

Experiments:
Assay in all cases: growth of human tumour cells (NCI), 48 h
SK-OV-3 = tested on: SK-OV-3
KM12 = tested on: KM12
SNB-19 = tested on: SNB-19
TK-10 = tested on: TK-10
HT-29 = tested on: HT-29
DLD-1 = tested on: DLD-1
IGROV-1 = tested on: IGROV-1
UACC-257 = tested on: UACC-257
SW-620 = tested on: SW-620
DMS-273 = tested on: DMS-273
UACC-62 = tested on: UACC-62
HCC 2998 = tested on: HCC 2998
A549 = tested on: A549
CAKI-1 = tested on: CAKI-1
OVCAR-5 = tested on: OVCAR-5
HOP-18 = tested on: HOP-18
NCI-H23 = tested on: NCI-H23
A498 = tested on: A498
HL-60 = tested on: HL-60
SNB-78 = tested on: SNB-78
RXF 393 = tested on: RXF 393
OVCAR-4 = tested on: OVCAR-4
M19-MEL = tested on: M19-MEL
Malme-3M = tested on: Malme-3M
LXFL 529 = tested on: LXFL 529
U-251 = tested on: U-251
SNB-75 = tested on: SNB-75
RPMI-8226 = tested on: RPMI-8226
HOP-92 = tested on: HOP-92
UO-31 = tested on: UO-31
KM-20L2 = tested on: KM-20L2
ACHN = tested on: ACHN
HCT-116 = tested on: HCT-116
M14 = tested on: M14
SF-539 = tested on: SF-539
NCI-H226 = tested on: NCI-H226
DMS-114 = tested on: DMS-114
OVCAR-8 = tested on: OVCAR-8
EKVX = tested on: EKVX
K562 = tested on: K562
786-0 = tested on: 786-0
NCI-H460 = tested on: NCI-H460
SR = tested on: SR
XF498 = tested on: XF498
SF-268 = tested on: SF-268
SK-MEL-5 = tested on: SK-MEL-5
SK-MEL-2 = tested on: SK-MEL-2
SN12C = tested on: SN12C
HOP-62 = tested on: HOP-62
NCI-H522 = tested on: NCI-H522
HCT-15 = tested on: HCT-15
CCRF-CEM = tested on: CCRF-CEM
SF-295 = tested on: SF-295
SK-MEL-28 = tested on: SK-MEL-28
MOLT-4 = tested on: MOLT-4
COLO 205 = tested on: COLO 205
OVCAR-3 = tested on: OVCAR-3
LOX IMVI = tested on: LOX IMVI
RXF 631 = tested on: RXF 631

CN(C)C(=O)NC(=S)N(C)C
GI50 (SK-OV-3): > 100 µM (inactive) | GI50 (KM12): > 100 µM (inactive) | GI50 (SNB-19): > 100 µM (inactive) | GI50 (TK-10): > 100 µM (inactive) | GI50 (HT-29): > 100 µM (inactive) | GI50 (DLD-1): > 100 µM (inactive) | GI50 (IGROV-1): > 100 µM (inactive) | GI50 (UACC-257): > 100 µM (inactive) | GI50 (SW-620): > 100 µM (inactive) | GI50 (DMS-273): > 100 µM (inactive) | GI50 (UACC-62): > 100 µM (inactive) | GI50 (HCC 2998): > 100 µM (inactive) | GI50 (A549): > 100 µM (inactive) | GI50 (CAKI-1): > 100 µM (inactive) | GI50 (OVCAR-5): > 100 µM (inactive) | GI50 (HOP-18): > 100 µM (inactive) | GI50 (NCI-H23): > 100 µM (inactive) | GI50 (A498): > 100 µM (inactive) | GI50 (HL-60): > 100 µM (inactive) | GI50 (SNB-78): > 100 µM (inactive) | GI50 (RXF 393): > 100 µM (inactive) | GI50 (OVCAR-4): > 100 µM (inactive) | GI50 (M19-MEL): > 100 µM (inactive) | GI50 (Malme-3M): > 100 µM (inactive) | GI50 (LXFL 529): > 100 µM (inactive) | GI50 (U-251): 0.206 µM (active) | GI50 (SNB-75): > 100 µM (inactive) | GI50 (RPMI-8226): > 100 µM (inactive) | GI50 (HOP-92): > 100 µM (inactive) | GI50 (UO-31): > 100 µM (inactive) | GI50 (KM-20L2): > 100 µM (inactive) | GI50 (ACHN): > 100 µM (inactive) | GI50 (HCT-116): > 100 µM (inactive) | GI50 (M14): > 100 µM (inactive) | GI50 (SF-539): > 100 µM (inactive) | GI50 (NCI-H226): 55.1 µM (inactive) | GI50 (DMS-114): > 100 µM (inactive) | GI50 (OVCAR-8): > 100 µM (inactive) | GI50 (EKVX): > 100 µM (inactive) | GI50 (K562): > 100 µM (inactive) | GI50 (786-0): > 100 µM (inactive) | GI50 (NCI-H460): > 100 µM (inactive) | GI50 (SR): > 100 µM (inactive) | GI50 (XF498): > 100 µM (inactive) | GI50 (SF-268): > 100 µM (inactive) | GI50 (SK-MEL-5): > 100 µM (inactive) | GI50 (SK-MEL-2): > 100 µM (inactive) | GI50 (SN12C): > 100 µM (inactive) | GI50 (HOP-62): 0.294 µM (active) | GI50 (NCI-H522): > 100 µM (inactive) | GI50 (HCT-15): 17.1 µM | GI50 (CCRF-CEM): > 100 µM (inactive) | GI50 (SF-295): > 100 µM (inactive) | GI50 (SK-MEL-28): > 100 µM (inactive) | GI50 (MOLT-4): > 100 µM (inactive)

Cc1nccc2c1cnc1ccnn12
GI50 (SK-OV-3): > 100 µM (inactive) | GI50 (KM12): > 100 µM (inactive) | GI50 (SNB-19): > 100 µM (inactive) | GI50 (TK-10): > 100 µM (inactive) | GI50 (HT-29): > 100 µM (inactive) | GI50 (DLD-1): > 100 µM (inactive) | GI50 (IGROV-1): > 100 µM (inactive) | GI50 (UACC-257): > 100 µM (inactive) | GI50 (SW-620): > 100 µM (inactive) | GI50 (DMS-273): > 100 µM (inactive) | GI50 (COLO 205): > 100 µM (inactive) | GI50 (HCC 2998): > 100 µM (inactive) | GI50 (A549): > 100 µM (inactive) | GI50 (CAKI-1): > 100 µM (inactive) | GI50 (OVCAR-5): > 100 µM (inactive) | GI50 (NCI-H23): > 100 µM (inactive) | GI50 (A498): > 100 µM (inactive) | GI50 (HL-60): > 100 µM (inactive) | GI50 (SNB-78): > 100 µM (inactive) | GI50 (RXF 393): > 100 µM (inactive) | GI50 (OVCAR-4): > 100 µM (inactive) | GI50 (M19-MEL): > 100 µM (inactive) | GI50 (Malme-3M): > 100 µM (inactive) | GI50 (LXFL 529): > 100 µM (inactive) | GI50 (U-251): > 100 µM (inactive) | GI50 (SNB-75): > 100 µM (inactive) | GI50 (RPMI-8226): > 100 µM (inactive) | GI50 (HOP-92): > 100 µM (inactive) | GI50 (UO-31): > 100 µM (inactive) | GI50 (KM-20L2): > 100 µM (inactive) | GI50 (ACHN): > 100 µM (inactive) | GI50 (HCT-116): > 100 µM (inactive) | GI50 (M14): > 100 µM (inactive) | GI50 (SF-539): > 100 µM (inactive) | GI50 (OVCAR-3): > 100 µM (inactive) | GI50 (NCI-H226): > 100 µM (inactive) | GI50 (DMS-114): > 100 µM (inactive) | GI50 (LOX IMVI): > 100 µM (inactive) | GI50 (OVCAR-8): > 100 µM (inactive) | GI50 (EKVX): 67.1 µM (inactive) | GI50 (K562): > 100 µM (inactive) | GI50 (786-0): > 100 µM (inactive) | GI50 (NCI-H460): > 100 µM (inactive) | GI50 (SR): > 100 µM (inactive) | GI50 (SF-268): > 100 µM (inactive) | GI50 (SK-MEL-5): > 100 µM (inactive) | GI50 (SK-MEL-2): > 100 µM (inactive) | GI50 (SN12C): > 100 µM (inactive) | GI50 (HOP-62): > 100 µM (inactive) | GI50 (NCI-H522): > 100 µM (inactive) | GI50 (RXF 631): > 100 µM (inactive) | GI50 (HCT-15): > 100 µM | GI50 (CCRF-CEM): > 100 µM (inactive) | GI50 (SK-MEL-28): > 100 µM (inactive) | GI50 (MOLT-4): > 100 µM (inactive)

C/C(CC(=O)NCCc1ccccc1)=N\NS(=O)(=O)c1ccc(C)cc1
GI50 (SK-OV-3): > 100 µM (inactive) | GI50 (KM12): > 100 µM (inactive) | GI50 (TK-10): > 100 µM (inactive) | GI50 (HT-29): > 100 µM (inactive) | GI50 (DLD-1): > 100 µM (inactive) | GI50 (IGROV-1): > 100 µM (inactive) | GI50 (UACC-257): > 100 µM (inactive) | GI50 (SW-620): > 100 µM (inactive) | GI50 (DMS-273): > 100 µM (inactive) | GI50 (COLO 205): > 100 µM (inactive) | GI50 (UACC-62): > 100 µM (inactive) | GI50 (HCC 2998): > 100 µM (inactive) | GI50 (A549): > 100 µM (inactive) | GI50 (OVCAR-5): > 100 µM (inactive) | GI50 (NCI-H23): > 100 µM (inactive) | GI50 (A498): > 100 µM (inactive) | GI50 (HL-60): > 100 µM (inactive) | GI50 (SNB-78): > 100 µM (inactive) | GI50 (RXF 393): > 100 µM (inactive) | GI50 (M19-MEL): > 100 µM (inactive) | GI50 (Malme-3M): > 100 µM (inactive) | GI50 (LXFL 529): > 100 µM (inactive) | GI50 (U-251): > 100 µM (inactive) | GI50 (SNB-75): > 100 µM (inactive) | GI50 (RPMI-8226): > 100 µM (inactive) | GI50 (HOP-92): > 100 µM (inactive) | GI50 (UO-31): > 100 µM (inactive) | GI50 (KM-20L2): > 100 µM (inactive) | GI50 (ACHN): > 100 µM (inactive) | GI50 (HCT-116): > 100 µM (inactive) | GI50 (M14): > 100 µM (inactive) | GI50 (SF-539): > 100 µM (inactive) | GI50 (OVCAR-3): > 100 µM (inactive) | GI50 (NCI-H226): > 100 µM (inactive) | GI50 (DMS-114): > 100 µM (inactive) | GI50 (LOX IMVI): > 100 µM (inactive) | GI50 (OVCAR-8): > 100 µM (inactive) | GI50 (EKVX): > 100 µM (inactive) | GI50 (K562): > 100 µM (inactive) | GI50 (786-0): > 100 µM (inactive) | GI50 (NCI-H460): > 100 µM (inactive) | GI50 (XF498): > 100 µM (inactive) | GI50 (SF-268): > 100 µM (inactive) | GI50 (SK-MEL-5): > 100 µM (inactive) | GI50 (SK-MEL-2): > 100 µM (inactive) | GI50 (HOP-62): > 100 µM (inactive) | GI50 (NCI-H522): > 100 µM (inactive) | GI50 (RXF 631): > 100 µM (inactive) | GI50 (CCRF-CEM): > 100 µM (inactive) | GI50 (SF-295): > 100 µM (inactive) | GI50 (SK-MEL-28): > 100 µM (inactive) | GI50 (MOLT-4): > 100 µM (inactive)
